Reference: patent US5196327A, “Process for producing antifungal fermentation products and compositions thereof” (Merck & Co., Inc., priority 1991, dated 1993)
Like-named read-outs stand apart in the source and are kept apart here.

How the values were obtained:
[1] = system: Ca. pseudotropicalis MY1040; assay: Agar dilution assay, MIC; type: cell-based, Candida pseudotropicalis; settings: strain MY1040; yeast nitrogen base dextrose agar
Description: (§1) In separate operations, in vitro antifungal activity determinations were carried out with Compound IB and with Compound IC against a panel of filamentous and yeast-like fungi employing yeast nitrogen base dextrose agar medium. In carrying out the assay, the compound to be tested was solubilized in 10 percent dimethyl sulfoxide (DMSO) supplemented with one drop of Tween 20. Two-fold dilutions were made with sterile distilled water/10% DMSO to obtain final concentrations in the agar dilution assay plates ranging from 64 to 0.06 μg/ml in the operation with Compound IB and from 128 to 0.06 μg/ml in the operation with Compound IC.
(§2) Nystatin (commercially available antifungal agent) was used as a positive antifungal control.

Cr. neoformans MY1146 = assay: Agar dilution assay, MIC; type: cell-based, Cryptococcus neoformans; settings: strain MY1146; yeast nitrogen base dextrose agar
Description: as §1, §2

A. flavus MF0383 = assay: Agar dilution assay, MIC; type: cell-based, Aspergillus flavus; settings: strain MF0383; yeast nitrogen base dextrose agar
Description: as §1, §2

[2] = system: Aspergillus fumigatus MF4839; assay: Agar dilution assay, MIC; type: cell-based; settings: strain MF4839; yeast nitrogen base dextrose agar
Description: as §1, §2

Ca. parapsilosis MY1009 = assay: Agar dilution assay, MIC; type: cell-based; settings: strain MY1009; yeast nitrogen base dextrose agar
Description: as §1, §2

Ca. guilliermondi MY1019 = assay: Agar dilution assay, MIC; type: cell-based; settings: strain MY1019; yeast nitrogen base dextrose agar
Description: as §1, §2

Candida albicans MY1058 = assay: Agar dilution assay, MIC; type: cell-based; settings: strain MY1058; yeast nitrogen base dextrose agar
Description: as §1, §2

[3] = system: Penicillium italicum MF2819; assay: Agar dilution assay, MIC; type: cell-based; settings: strain MF2819; yeast nitrogen base dextrose agar
Description: as §1, §2

Ca. stellatoidea MY1017 = assay: Agar dilution assay, MIC; type: cell-based; settings: strain MY1017; yeast nitrogen base dextrose agar
Description: as §1, §2

Ca. parapsilosis MY1010 = assay: Agar dilution assay, MIC; type: cell-based; settings: strain MY1010; yeast nitrogen base dextrose agar
Description: as §1, §2

[4] = system: Torulopsis glabrata MY1059; assay: Agar dilution assay, MIC; type: cell-based; settings: strain MY1059; yeast nitrogen base dextrose agar
Description: as §1, §2

[5] = system: Cryptococcus neoformans MY1051; assay: Agar dilution assay, MIC; type: cell-based; settings: strain MY1051; yeast nitrogen base dextrose agar
Description: as §1, §2

Ca. krusei MY1020 = assay: Agar dilution assay, MIC; type: cell-based; settings: strain MY1020; yeast nitrogen base dextrose agar
Description: as §1, §2

Sac. cerevisiae MY1027 = assay: Agar dilution assay, MIC; type: cell-based, Saccharomyces cerevisiae; settings: strain MY1027; yeast nitrogen base dextrose agar
Description: as §1, §2

Ca. tropicalis MY1012 = assay: Agar dilution assay, MIC; type: cell-based, Candida tropicalis; settings: strain MY1012; yeast nitrogen base dextrose agar
Description: as §1, §2

Ca. tropicalis MY1011 = assay: Agar dilution assay, MIC; type: cell-based, Candida tropicalis; settings: strain MY1011; yeast nitrogen base dextrose agar
Description: as §1, §2

Ca. rugosa MY1022 = assay: Agar dilution assay, MIC; type: cell-based, Candida rugosa; settings: strain MY1022; yeast nitrogen base dextrose agar
Description: as §1, §2

Ca. albicans MY0992 = assay: Agar dilution assay, MIC; type: cell-based, Candida albicans; settings: strain MY0992; yeast nitrogen base dextrose agar
Description: as §1, §2

Ca. albicans MY1013 = assay: Agar dilution assay, MIC; type: cell-based, Candida albicans; settings: strain MY1013; yeast nitrogen base dextrose agar
Description: as §1, §2

Ca. albicans MY1055 = assay: Agar dilution assay, MIC; type: cell-based, Candida albicans; settings: strain MY1055; yeast nitrogen base dextrose agar
Description: as §1, §2

Ca. albicans MY1029 = assay: Agar dilution assay, MIC; type: cell-based, Candida albicans; settings: strain MY1029; yeast nitrogen base dextrose agar
Description: as §1, §2

Ustilago maydis = assay: Antifungal disc diffusion assay; type: cell-based
From the text: (§3) The antifungal activity of the compounds may be detected in an antifungal assay employing disc diffusion methods against a panel of representative yeasts, filamentous fungi (molds) and bacteria.
(§4) The filamentous fungi used in the assay are Cochliobolus miyabeanus, Penicillium sp. (three strains), Aspergillus niger, Trichoderma sp., Phoma sp., Trichoderma lignorum, Fusarium oxysporum, Ustilago maydis, Ceratocystis ulmi, Alternaria solani, Verticillium serrae, Botrytis allii, Scopulariopsis communis, Cephalosporium sp., Cercospora beticola, […], Rhizomucor miehei, Aspergillus flavus and Aspergillus fumigatus.
(§5) For carrying out the assay, seeded assay plates are prepared in the following manner according to the type of assay strain.
(§6) Inocula for filamentous fungi are prepared by scraping the surface of stock plates maintained on potato dextrose agar with a moistened sterile dacron swab. The spores and mycelia are then suspended in 10 milliliters of sterile potato dextrose broth and adjusted to 70 percent transmission at 660 nm.
(§7) The seeded agar media thus prepared are dispensed into petri dishes for assays (11 milliliters per dish).
The samples to be tested for production of antifungal agent are applied to 6.2 mm. filter paper discs (25 microliter/disc) and air dried at 24° C. […]
(§8) Following incubation, the inhibition zones are measured and recorded. […]

[6] = system: Candida albicans (five strains); assay: Antifungal disc diffusion assay; type: cell-based; settings: five strains of Candida albicans
From the text: as §3
(§9) The yeasts employed in the assay are Saccharomyces cerevisiae, Candida albicans, […], Candida tropicalis, Candida rugosa, Brettanomyces bruxellensis, Torulospora hansenii, Candida quilliermondi, Candida pseudotropicalis, Torulopsis glabrata, Cryptococcus albidus, and Cryptococcus laurentii.
as §5
(§10) Inocula for yeasts and bacterial strains are prepared from overnight broth cultures then diluted into potato dextrose agar to a final concentration of either 40 percent or 70 percent transmission at 660 nm.
For three strains of Candida albicans and one strain of Saccharomyces cerevisiae, sterile saline is employed in place of potato dextrose broth. Assay plates are prepared by diluting the inoculum into appropriate molten agar medium, cooled to 45° C. to obtain a final concentration of 4 percent.
The seeded agar media thus prepared are dispensed into petri dishes for assays (11 milliliters per dish). […]
as §8

Aspergillus niger = assay: Antifungal disc diffusion assay; type: cell-based
From the text: as §3, §4, §9, §5
Inocula for filamentous fungi are prepared by scraping the surface of stock plates maintained on potato dextrose agar with a moistened sterile dacron swab. […]
as §8

Candida tropicalis = assay: Antifungal disc diffusion assay; type: cell-based
From the text: as §3, §9, §5, §10, §7
(§11) The samples to be tested for production of antifungal agent are applied to 6.2 mm. filter paper discs (25 microliter/disc) and air dried at 24° C. When the sample to be tested is crude broth, it may be centrifuged prior to application. The discs bearing the material to be tested are then applied employing sterile conditions to the seeded assay plates and the samples rewet with 25 percent sterile aqueous dimethylsulfoxide (25 μl/disc). The assay plates are then incubated at either 28° C. or 37° C. for 24 hours. In one of the assays for Bacillus subtilis, the sample is applied to a disc previously impregnated with 4M potassium chloride at 25 μl/disc and then air dried.
(§12) Following incubation, the inhibition zones are measured and recorded. The measurements are made from the extreme edge where growth differs from the background zone. The growths are noted as to appearance as fuzzy edge and clear center, hazy throughout, slightly hazy, very hazy or ringed.

Cryptococcus albidus = assay: Antifungal disc diffusion assay; type: cell-based
From the text: as §3, §9, §5, §10, §7, §11, §12

Torulospora hansenii = assay: Antifungal disc diffusion assay; type: cell-based
From the text: as §3, §9, §5, §10, §7, §11, §12

[7] = system: panel of representative yeasts, filamentous fungi (molds) and bacteria; assay: Antifungal disc diffusion assay, panel; type: cell-based; settings: panel of organisms
From the text: as §3, §4, §9
The bacteria employed in the assay are Streptomyces sp., Acholeplasma laidlawii and Bacillus subtilis.
as §5, §6, §10
When the organism is Acholephasma laidlawii, it is suspended in brain heart infusion broth supplemented with 2.5 percent yeast extract and 20 percent heat inactivated horse serum, and the broth adjusted to a final concentration of 60 percent transmission at 660 nm. […]
as §8

Structure (SMILES): C[C@@H]1[C@H](O)[C@@H](C)/C=C/C=C/CC/C=C/C=C/C=C/C=C/C(O[C@H]2O[C@H](C)[C@@H](O)[C@H](N)[C@@H]2O)CC2O[C@](O)(CC(O)C(O)CCC(O)CC(O)CC(O)CC(=O)O[C@H]1C)CC(O)C2C(=O)O (stereo partly drawn) [Nystatin, reference compound]
- Minimum Inhibitory Concentration [1]: 1 µg/mL
- Minimum Inhibitory Concentration (Cr. neoformans MY1146): 2 µg/mL
- Minimum Inhibitory Concentration (A. flavus MF0383): 2 µg/mL
- Minimum Inhibitory Concentration [2]: 2 µg/mL
- Minimum Inhibitory Concentration (Ca. parapsilosis MY1009): 4 µg/mL
- Minimum Inhibitory Concentration (Ca. guilliermondi MY1019): 2 µg/mL
- Minimum Inhibitory Concentration (Candida albicans MY1058): 2 µg/mL
- Minimum Inhibitory Concentration [3]: 2 µg/mL
- Minimum Inhibitory Concentration (Ca. stellatoidea MY1017): 2 µg/mL
- Minimum Inhibitory Concentration (Ca. parapsilosis MY1010): 2 µg/mL
- Minimum Inhibitory Concentration [4]: 1 µg/mL
- Minimum Inhibitory Concentration [5]: 2 µg/mL
- Minimum Inhibitory Concentration (Ca. krusei MY1020): 2 µg/mL
- Minimum Inhibitory Concentration (Sac. cerevisiae MY1027): 1 µg/mL
- Minimum Inhibitory Concentration (Ca. tropicalis MY1012): > 128 µg/mL
- Minimum Inhibitory Concentration (Ca. tropicalis MY1011): 2 µg/mL
- Minimum Inhibitory Concentration (Ca. rugosa MY1022): 4 µg/mL
- Minimum Inhibitory Concentration (Ca. albicans MY0992): 2 µg/mL
- Minimum Inhibitory Concentration (Ca. albicans MY1013): 2 µg/mL
- Minimum Inhibitory Concentration (Ca. albicans MY1055): 2 µg/mL
- Minimum Inhibitory Concentration (Ca. albicans MY1029): 2 µg/mL

Structure (SMILES): CCCCCCC(O)CCCCCCC=CC(O)C(O)C(O)C(NC(=N)N)C(=O)O (stereo not drawn) [Compound IA, 2-guanidino-3,4,5,14-tetrahydroxy-6-eicosenoic acid]
- antifungal activity (Ustilago maydis): good activity
- antifungal activity (Ustilago maydis; listed as I-A): especially good activity
- antifungal activity [6]: good activity
- antifungal activity (Aspergillus niger): good activity
- antifungal activity (Candida tropicalis): good activity
- antifungal activity (Cryptococcus albidus): good activity
- antifungal activity (Torulospora hansenii): good activity
- antifungal activity [7]: good activity against almost all of the organisms
- antifungal activity ([7]; listed as I-A): activity against a number of fungal organisms
